Assay results: ChEMBL document CHEMBL1250488, “Structural and functional basis of resistance to neuraminidase inhibitors of influenza B viruses” (J Med Chem, 2010)

Assays:
[1] = Inhibition of Influenza B virus (B/Perth/211/2001) recombinant wild type neuraminidase expressed in Sf21 insect cells after 60 mins by MUNANA based assay
[2] = Inhibition of Influenza B virus (B/Perth/211/2001) wild type recombinant neuraminidase expressed in Sf21 insect cells preincubated for 30 mins measured after 60 mins by MUNANA based assay
[3] = Inhibition of Influenza B virus B/Gifu/11/2005 wild type neuraminidase expressed in Sf21 insect cells after 60 mins by MUNANA based assay
[4] = Inhibition of Influenza B virus B/Gifu/11/2005 wild type neuraminidase expressed in Sf21 insect cells preincubated for 30 mins measured after 60 mins by MUNANA based assay

SMILES | IC50 [1] [nM] | IC50 [2] [nM] | Ki [2] [nM] | Ki [1] [nM] | Ki [3] [nM] | IC50 [4] [nM] | Ki [4] [nM]
O=C(O)C1(F)O[C@H]([C@H](O)[C@H](O)CO)[C@H](O)[C@@H](O)C1F (some centres not stated) | 37700 | – | – | – | – | – | –
CCC(CC)[C@H](NC(C)=O)[C@@H]1[C@H](O)[C@@H](C(=O)O)C[C@H]1NC(=N)N [PERAMIVIR ANHYDROUS] | – | 2.8 | 0.6 | 1.2 | 0.7 | 2.1 | 0.3
